The results in this text go back to patent publication US20260356830A1, “COMPOUNDS FOR MODULATING RET PROTEIN” (Bristol-Myers Squibb Company, priority 2022, published 2026).

Molecules are shown by their SMILES.

The assay addresses T1, CCDC6-RET (Homo sapiens, UniProt P07949+Q16204+Q96SW2).
T1 construct: CCDC6 (natural N-terminal fusion partner, UniProt Q16204); endogenous in cells; host or cells: TPC-1 (parental, papillary thyroid carcinoma)
Put plainly: Cellular RET degradation, AlphaLISA, TPC-1 cell line. To be noted: for Dmax: TPC1, human, 24 h, read-out: Cell Density TPC-1/CCDC6-RET Ymax %; for DC50: read-out: Cell Density TPC-1/CCDC6-RET DC50, half-maximal degradation concentration, TPC-1 (CCDC6-RET), 24 hrs. The class given is cell-based. An outline of the steps:
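TPC-1 papillary thyroid carcinoma cells (endogenous CCDC6-RET) in DMEM with 2% FBS, compound-treated 24 h at 37 °C. RET in lysates quantified by AlphaLISA luminescence, normalized to media-only and DMSO wells; DC50 and maximal degradation from 4-parameter logistic fit.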

T1 sequence (Q16204+P07949 fused): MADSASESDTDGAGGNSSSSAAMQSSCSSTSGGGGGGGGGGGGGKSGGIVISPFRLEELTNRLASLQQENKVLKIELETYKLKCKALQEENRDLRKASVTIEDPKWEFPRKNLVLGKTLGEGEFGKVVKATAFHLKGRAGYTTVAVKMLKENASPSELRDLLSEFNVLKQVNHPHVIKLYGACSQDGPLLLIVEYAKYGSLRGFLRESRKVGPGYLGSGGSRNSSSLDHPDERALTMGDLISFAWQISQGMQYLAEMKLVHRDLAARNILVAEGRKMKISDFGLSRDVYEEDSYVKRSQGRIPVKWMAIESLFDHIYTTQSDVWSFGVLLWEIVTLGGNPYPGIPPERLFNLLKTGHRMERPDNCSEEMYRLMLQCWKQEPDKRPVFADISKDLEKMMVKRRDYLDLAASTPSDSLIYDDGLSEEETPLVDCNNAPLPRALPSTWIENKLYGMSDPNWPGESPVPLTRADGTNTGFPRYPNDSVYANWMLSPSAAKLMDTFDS
T1 sequence (Q96SW2 whole entry, the tested form may be a part): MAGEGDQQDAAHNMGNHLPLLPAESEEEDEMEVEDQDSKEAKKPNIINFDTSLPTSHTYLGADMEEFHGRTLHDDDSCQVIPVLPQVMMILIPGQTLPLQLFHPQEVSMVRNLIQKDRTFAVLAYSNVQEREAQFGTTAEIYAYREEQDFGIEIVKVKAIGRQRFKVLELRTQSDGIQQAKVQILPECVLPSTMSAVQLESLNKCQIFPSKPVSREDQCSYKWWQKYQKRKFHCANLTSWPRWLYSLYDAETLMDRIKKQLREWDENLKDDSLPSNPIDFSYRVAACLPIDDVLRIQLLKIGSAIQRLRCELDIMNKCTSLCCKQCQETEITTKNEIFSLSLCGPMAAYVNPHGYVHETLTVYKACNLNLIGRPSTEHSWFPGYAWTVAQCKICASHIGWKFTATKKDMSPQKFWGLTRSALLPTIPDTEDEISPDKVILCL
T1 sequence (Q16531 whole entry partner, the tested form may be a part): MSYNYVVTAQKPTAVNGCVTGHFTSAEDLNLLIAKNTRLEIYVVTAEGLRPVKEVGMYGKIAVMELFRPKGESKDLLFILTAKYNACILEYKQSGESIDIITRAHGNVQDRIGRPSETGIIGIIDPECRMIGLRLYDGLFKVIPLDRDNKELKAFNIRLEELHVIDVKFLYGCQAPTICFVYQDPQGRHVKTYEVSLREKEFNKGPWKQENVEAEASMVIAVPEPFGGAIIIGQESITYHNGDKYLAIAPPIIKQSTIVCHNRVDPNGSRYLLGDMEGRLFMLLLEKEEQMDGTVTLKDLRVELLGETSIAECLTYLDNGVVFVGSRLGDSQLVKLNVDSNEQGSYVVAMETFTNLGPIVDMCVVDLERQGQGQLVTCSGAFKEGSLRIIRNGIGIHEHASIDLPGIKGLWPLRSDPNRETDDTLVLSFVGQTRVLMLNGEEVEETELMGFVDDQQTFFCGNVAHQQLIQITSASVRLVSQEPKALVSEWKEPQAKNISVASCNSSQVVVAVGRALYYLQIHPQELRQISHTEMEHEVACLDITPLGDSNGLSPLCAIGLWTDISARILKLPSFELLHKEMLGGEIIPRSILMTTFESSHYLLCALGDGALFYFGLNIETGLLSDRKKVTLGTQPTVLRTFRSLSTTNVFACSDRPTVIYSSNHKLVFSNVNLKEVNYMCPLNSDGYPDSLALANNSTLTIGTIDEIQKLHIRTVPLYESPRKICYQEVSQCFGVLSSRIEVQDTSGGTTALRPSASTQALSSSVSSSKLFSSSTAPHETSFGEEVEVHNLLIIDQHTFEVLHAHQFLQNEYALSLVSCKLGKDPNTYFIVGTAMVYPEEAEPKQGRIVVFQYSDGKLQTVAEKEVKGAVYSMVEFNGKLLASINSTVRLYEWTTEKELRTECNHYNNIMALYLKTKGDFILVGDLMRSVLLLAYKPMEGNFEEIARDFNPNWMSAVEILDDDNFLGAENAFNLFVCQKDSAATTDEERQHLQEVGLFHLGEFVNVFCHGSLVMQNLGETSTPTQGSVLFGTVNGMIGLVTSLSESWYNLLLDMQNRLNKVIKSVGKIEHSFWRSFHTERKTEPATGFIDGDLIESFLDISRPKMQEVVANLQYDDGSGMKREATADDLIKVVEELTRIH

For the compound `CCOc1cc(-c2ccc(N3CCC(CN4CCN(CC5CCN(C(=O)c6ccc7c(c6)C(=O)N(C6CCC(=O)NC6=O)C7)CC5)CC4)(NC(=O)c4cc(F)ccc4F)CC3)nc2)c2c(C#N)cnn2c1` (stereo not drawn) [Example 110, N-[1-(5-{3-cyano-6-ethoxypyrazolo[1,5-a]pyridin-4-yl}pyridin-2-yl)-4-{[4-({1-[2-(2,6-dioxopiperidin-3-yl)-3-oxo-2,3-dihydro-1H-isoindole-5-carbonyl]piperidin-4-yl}methyl)piperazin-1-yl]methyl}piperidin-4-yl]-2,5-difluorobenzamide], the Dmax lay in the range of 60 to 90% and the DC50 fell in the range of 2 to 10 nM.

Take `CCOc1cc(-c2ccc(N3CCC(CN4CCN(CC5CCN(C(=O)Cc6ccc7c(c6)CN(C6CCC(=O)NC6=O)C7=O)CC5)CC4)(NC(=O)c4cc(F)ccc4F)CC3)nc2)c2c(C#N)cnn2c1` (stereo not drawn) [Example 112, N-[1-(5-{3-cyano-6-ethoxypyrazolo[1,5-a]pyridin-4-yl}pyridin-2-yl)-4-({4-[(1-{2-[2-(2,6-dioxopiperidin-3-yl)-1-oxo-2,3-dihydro-1H-isoindol-5-yl]acetyl}piperidin-4-yl)methyl]piperazin-1-yl}methyl)piperidin-4-yl]-2,5-difluorobenzamide]: the Dmax was more than 90% and the DC50 was 2 to 10 nM.

As for `CCOc1cc(-c2ccc(N3CCC(CN(C)C(=O)CCCCCCN4CCC(c5ccc6c(c5)CN(C5CCC(=O)NC5=O)C6=O)CC4)(NC(=O)c4cc(F)ccc4F)CC3)nc2)c2c(C#N)cnn2c1` (stereo not drawn) [Example 140, N-[1-(5-{3-cyano-6-ethoxypyrazolo[1,5-a]pyridin-4-yl}pyridin-2-yl)-4-[(7-{4-[2-(2,6-dioxopiperidin-3-yl)-1-oxo-2,3-dihydro-1H-isoindol-5-yl]piperidin-1-yl}-N-methylheptanamido)methyl]piperidin-4-yl]-2,5-difluorobenzamide], the Dmax was more than 90% and the DC50 was in the range of 2 to 10 nM.

As to `CCOc1cc(-c2ccc(N3CCC(CN4CCN(C(=O)CCCCCCCCCCCCCCNC(=O)COc5cccc6c5CN(C5CCC(=O)NC5=O)C6=O)CC4)(NC(=O)c4cc(F)ccc4F)CC3)nc2)c2c(C#N)cnn2c1` (stereo not drawn) [Example 30, N-[1-(5-{3-cyano-6-ethoxypyrazolo[1,5-a]pyridin-4-yl}pyridin-2-yl)-4-({4-[15-(2-{[2-(2,6-dioxopiperidin-3-yl)-1-oxo-2,3-dihydro-1H-isoindol-4-yl]oxy}acetamido)pentadecanoyl]piperazin-1-yl}methyl)piperidin-4-yl]-2,5-difluorobenzamide], the Dmax lay in the range of 60 to 90% and the DC50 was 100 to 2000 nM.

`CCOc1cc(-c2ccc(N3CCC(CN4CCN(C(=O)CCCN5CCN(c6ccc7c(c6)CN(C6CCC(=O)NC6=O)C7=O)CC5)CC4)(NC(=O)c4cc(F)ccc4F)CC3)nc2)c2c(C#N)cnn2c1` (stereo not drawn) [Example 14, N-(1-(5-(3-cyano-6-ethoxypyrazolo[1,5-a]pyridin-4-yl)pyridin-2-yl)-4-((4-(4-(4-(2-(2,6-dioxopiperidin-3-yl)-1-oxoisoindolin-5-yl)piperazin-1-yl)butanoyl)piperazin-1-yl)methyl)piperidin-4-yl)-2,5-difluorobenzamide]: the Dmax lay in the range of 60 to 90% and the DC50 fell in the range of 2 to 10 nM.

In the case of `CCOc1cc(-c2ccc(N3CCC(CN4CCN(C(=O)C5CC6(CC(C(=O)Nc7ccc8c(N9CCC(=O)NC9=O)nn(C)c8c7)C6)C5)CC4)(NC(=O)c4cc(F)ccc4F)CC3)nc2)c2c(C#N)cnn2c1` (stereo not drawn) [Example 84, 6-(4-{[1-(5-{3-cyano-6-ethoxypyrazolo[1,5-a]pyridin-4-yl}pyridin-2-yl)-4-(2,5-difluorobenzamido)piperidin-4-yl]methyl}piperazine-1-carbonyl)-N-[3-(2,4-dioxo-1,3-diazinan-1-yl)-1-methyl-1H-indazol-6-yl]spiro[3.3]heptane-2-carboxamide], the Dmax is more than 90% and the DC50 was less than 2 nM.

For the compound `CCOc1cc(-c2ccc(N3CCC(CN4CCN(C(=O)CCOCCN5CCN(c6ccc7c(c6)CN(C6CCC(=O)NC6=O)C7=O)CC5)CC4)(NC(=O)c4cc(F)ccc4F)CC3)nc2)c2c(C#N)cnn2c1` (stereo not drawn) [Example 104, N-[1-(5-{3-cyano-6-ethoxypyrazolo[1,5-a]pyridin-4-yl}pyridin-2-yl)-4-({4-[3-(2-{4-[2-(2,6-dioxopiperidin-3-yl)-1-oxo-2,3-dihydro-1H-isoindol-5-yl]piperazin-1-yl}ethoxy)propanoyl]piperazin-1-yl}methyl)piperidin-4-yl]-2,5-difluorobenzamide], the Dmax was in the range of 60 to 90% and the DC50 fell in the range of 2 to 10 nM.

Consider `CCOc1cc(-c2ccc(N3CCC(CN(C(=O)CCN4CCN(c5ccc6c(c5)C(=O)N(C5CCC(=O)NC5=O)C6)CC4)C(C)C)(NC(=O)c4cc(F)ccc4F)CC3)nc2)c2c(C#N)cnn2c1` (stereo not drawn) [Example 167, N-[1-(5-{3-cyano-6-ethoxypyrazolo[1,5-a]pyridin-4-yl}pyridin-2-yl)-4-[(3-{4-[2-(2,6-dioxopiperidin-3-yl)-3-oxo-2,3-dihydro-1H-isoindol-5-yl]piperazin-1-yl}-N-(propan-2-yl)propanamido)methyl]piperidin-4-yl]-2,5-difluorobenzamide], for which the Dmax fell in the range of 60 to 90% and the DC50 lay in the range of 2 to 10 nM.

As for `CCOc1cc(-c2ccc(N3CCC(CN4CCN(C(=O)C5CC6(C5)CC(N5CCC(c7ccc8c(c7)CN(C7CCC(=O)NC7=O)C8=O)CC5)C6)CC4)(NC(=O)c4cc(F)ccc4F)CC3)nc2)c2c(C#N)cnn2c1` (stereo not drawn) [Example 92, N-[1-(5-{3-cyano-6-ethoxypyrazolo[1,5-a]pyridin-4-yl}pyridin-2-yl)-4-{[4-(6-{4-[2-(2,6-dioxopiperidin-3-yl)-1-oxo-2,3-dihydro-1H-isoindol-5-yl]piperidin-1-yl}spiro[3.3]heptane-2-carbonyl)piperazin-1-yl]methyl}piperidin-4-yl]-2,5-difluorobenzamide], the Dmax was more than 90% and the DC50 is 2 to 10 nM.

On to `CCOc1cc(-c2ccc(N3CCC(CN4CCN(C(=O)CCCN5CCN(c6ccc7c(N8CCC(=O)NC8=O)nn(C)c7c6)CC5)CC4)(NC(=O)c4cc(F)ccc4F)CC3)nc2)c2c(C#N)cnn2c1` [Example 43, N-(1-(5-(3-cyano-6-ethoxypyrazolo[1,5-a]pyridin-4-yl)pyridin-2-yl)-4-((4-(4-(4-(3-(2,4-dioxotetrahydropyrimidin-1(2H)-yl)-1-methyl-1H-indazol-6-yl)piperazin-1-yl)butanoyl)piperazin-1-yl)methyl)piperidin-4-yl)-2,5-difluorobenzamide], for which the Dmax was more than 90% and the DC50 is less than 2 nM.

Turning to `CCOc1cc(-c2ccc(N3CCC(CN4CCN(C(=O)CCCCNC(=O)COc5cccc6c5CN(C5CCC(=O)NC5=O)C6=O)CC4)(NC(=O)c4cc(F)ccc4F)CC3)nc2)c2c(C#N)cnn2c1` (stereo not drawn) [Example 26, N-[1-(5-{3-cyano-6-ethoxypyrazolo[1,5-a]pyridin-4-yl}pyridin-2-yl)-4-({4-[5-(2-{[2-(2,6-dioxopiperidin-3-yl)-1-oxo-2,3-dihydro-1H-isoindol-4-yl]oxy}acetamido)pentanoyl]piperazin-1-yl}methyl)piperidin-4-yl]-2,5-difluorobenzamide], the Dmax is more than 90% and the DC50 lay within 2 to 10 nM.

Regarding `CCOc1cc(-c2ccc(N3CCC(Cc4ccccc4)(NC(=O)CC4CCN(C(=O)CCN5CCC(c6ccc7c(c6)C(=O)N(C6CCC(=O)NC6=O)C7)CC5)CC4)CC3)nc2)c2c(C#N)cnn2c1` (stereo not drawn) [Example 54, N-[4-benzyl-1-[5-(3-cyano-6-ethoxy-pyrazolo[1,5-a]pyridin-4-yl)-2-pyridyl]-4-piperidyl]-2-[1-[3-[4-[2-(2,6-dioxo-3-piperidyl)-3-oxo-isoindolin-5-yl]-1-piperidyl]propanoyl]-4-piperidyl]acetamide], the Dmax fell in the range of 60 to 90% and the DC50 was in the range of 100 to 2000 nM.

Consider `CCOc1cc(-c2ccc(N3CCC(CN4CCN(C(=O)CCCCCCN5CCN(c6ccc7c(c6)CN(C6CCC(=O)NC6=O)C7=O)CC5)CC4)CC3)nc2)c2c(C#N)cnn2c1` (stereo not drawn) [Example 125, 4-[6-(4-{[4-(7-{4-[2-(2,6-dioxopiperidin-3-yl)-1-oxo-2,3-dihydro-1H-isoindol-5-yl]piperazin-1-yl}heptanoyl)piperazin-1-yl]methyl}piperidin-1-yl)pyridin-3-yl]-6-ethoxypyrazolo[1,5-a]pyridine-3-carbonitrile], for which the Dmax was more than 90% and the DC50 is 10 to 100 nM.

Consider `CCOc1cc(-c2ccc(N3CCC(Cc4ccccc4)(NC(=O)N4CCN(C(=O)CCN5CCC(c6ccc7c(c6)C(=O)N(C6CCC(=O)NC6=O)C7)CC5)CC4)CC3)nc2)c2c(C#N)cnn2c1` (stereo not drawn) [Example 51, N-[4-benzyl-1-[5-(3-cyano-6-ethoxy-pyrazolo[1,5-a]pyridin-4-yl)-2-pyridyl]-4-piperidyl]-4-[3-[4-[2-(2,6-dioxo-3-piperidyl)-3-oxo-isoindolin-5-yl]-1-piperidyl]propanoyl]piperazine-1-carboxamide], for which the Dmax fell in the range of 60 to 90% and the DC50 was in the range of 10 to 100 nM.

Take `CCOc1cc(-c2ccc(N3CCC(NC(=O)c4cc(F)ccc4F)(C(=O)NCCCCCCN4CCN(c5ccc6c(c5)C(=O)N(C5CCC(=O)NC5=O)C6)CC4)CC3)nc2)c2c(C#N)cnn2c1` (stereo not drawn) [Example 160, 1-(5-{3-cyano-6-ethoxypyrazolo[1,5-a]pyridin-4-yl}pyridin-2-yl)-4-(2,5-difluorobenzamido)-N-(6-{4-[2-(2,6-dioxopiperidin-3-yl)-3-oxo-2,3-dihydro-1H-isoindol-5-yl]piperazin-1-yl}hexyl)piperidine-4-carboxamide]: the Dmax is more than 90% and the DC50 was 2 to 10 nM.
